Source: paper PMC9374744, “Structural basis for receptor selectivity and inverse agonism in S1P5 receptors” (Nature Communications, 2022)
“And” between values parts separate entries of the source, which are not always exact repeats. Equal values may be shown once.

Tests used:
human S1P5 V115A mutant = human S1P5 V115A mutant (Homo sapiens, UniProt Q9H228, V115A); assay: BRET-based cAMP Gi signaling assay, S1P5 V115A; settings: V115A, Suppl. Fig. 6e
human WT S1P5 receptor = human WT S1P5 receptor (Homo sapiens, UniProt Q9H228); assay: BRET-based cAMP (EPAC biosensor) Gi signaling assay, WT S1P5; settings: WT, Suppl. Fig. 6e
human S1P5 T79A mutant = human S1P5 T79A mutant (Homo sapiens, UniProt Q9H228, T79A); assay: BRET-based cAMP Gi signaling assay, S1P5 T79A; settings: T79A, Suppl. Fig. 6c
Chain of human S1P5 T79A mutant (Q9H228 whole entry T79A): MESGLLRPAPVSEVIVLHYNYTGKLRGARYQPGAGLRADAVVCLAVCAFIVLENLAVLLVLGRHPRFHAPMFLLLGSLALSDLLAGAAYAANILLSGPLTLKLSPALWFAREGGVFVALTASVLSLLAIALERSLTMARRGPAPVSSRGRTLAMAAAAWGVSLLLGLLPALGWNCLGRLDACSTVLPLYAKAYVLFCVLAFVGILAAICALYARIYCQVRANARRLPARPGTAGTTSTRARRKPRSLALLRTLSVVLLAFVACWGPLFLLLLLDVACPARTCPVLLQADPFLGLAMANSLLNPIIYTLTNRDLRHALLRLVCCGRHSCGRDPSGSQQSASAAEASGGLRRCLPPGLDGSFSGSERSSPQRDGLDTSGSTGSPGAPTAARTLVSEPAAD

Chain of human WT S1P5 receptor (Q9H228 whole entry): as the sequence (Q9H228 whole entry T79A) above, with A79T counted along it
Chain of human S1P5 V115A mutant (Q9H228 whole entry V115A): as the sequence (Q9H228 whole entry T79A) above, with A79T, V115A counted along it

With CCCCCCCCCCCCC/C=C/[C@@H](O)[C@@H](N)COP(=O)(O)O [S1P, sphingosine-1-phosphate] the “BRET signal, raw replicate readings” value (human S1P5 V115A mutant; S1P 12500 nM) was 0.7675, the “BRET signal, raw replicate readings” value (human S1P5 V115A mutant; S1P 25000 nM) was 0.7654 and 0.7708 and 0.7701 and 0.7667 and 0.7652 and 0.763 and 0.7734 and 0.7704 and 0.7743 and the “BRET signal, raw replicate readings” value (human WT S1P5 receptor; S1P 0.685185 nM) was 0.7239 and 0.7229 and 0.7227 and 0.7322 and 0.7297 and 0.7339 and 0.7264 and 0.7321 and 0.7345. The “BRET signal, raw replicate readings” value (human WT S1P5 receptor; S1P 2.05556 nM) was 0.7237 and 0.7264 and 0.7244 and 0.734 and 0.7307 and 0.7332 and 0.7317 and 0.7311 and 0.7362, the “BRET signal, raw replicate readings” value (human WT S1P5 receptor; S1P 6.16667 nM) was 0.7266 and 0.7231 and 0.7269 and 0.7291 and 0.734 and 0.731 and 0.7324 and 0.7315 and 0.7331 and the “BRET signal, raw replicate readings” value (human WT S1P5 receptor; S1P 18.5 nM) was 0.7325 and 0.7286 and 0.7291 and 0.731 and 0.733 and 0.7374 (2×) and 0.7372 and 0.7364. The “BRET signal, raw replicate readings” value (human WT S1P5 receptor; S1P 55.5 nM) was 0.7419 and 0.743 and 0.7446 and 0.7524 and 0.7535 and 0.7545 and 0.7491 and 0.7497 (2×), the “BRET signal, raw replicate readings” value (human WT S1P5 receptor; S1P 185 nM) was 0.7589 and 0.7571 and 0.7588 and 0.7688 and 0.7682 and 0.766 and 0.76 and 0.7599 and 0.7596 and the “BRET signal, raw replicate readings” value (human WT S1P5 receptor; S1P 781.25 nM) was 0.7647 and 0.7661 and 0.7611 and 0.7735 and 0.7751 and 0.7748 and 0.7643 and 0.7625 and 0.7654. For the same molecule, the “BRET signal, raw replicate readings” value (human WT S1P5 receptor; S1P 3125 nM) was 0.7721 and 0.769 and 0.7694 and 0.7819 and 0.7829 and 0.7848 and 0.7658 and 0.7706 and 0.7596, the “BRET signal, raw replicate readings” value (human WT S1P5 receptor; S1P 12500 nM) was 0.7775 and 0.7718 and 0.7733 and 0.7869 and 0.7878 and 0.7756 and 0.7691 and 0.7737 and 0.7605 and the “BRET signal, raw replicate readings” value (human WT S1P5 receptor; S1P 25000 nM) was 0.7765 and 0.7709 and 0.7762 and 0.7879 and 0.7898 and 0.785 and 0.7721 and 0.7678 and 0.7681. For the same molecule, the “BRET signal, raw replicates” value (human S1P5 T79A mutant; [S1P] 0.228395 nM) was 0.728 and 0.7297 and 0.7309 and 0.7306 and 0.7448 and 0.7165 and 0.733 and 0.732 and 0.7327, the “BRET signal, raw replicates” value (human S1P5 T79A mutant; [S1P] 0.685185 nM) was 0.7302 and 0.7321 and 0.7319 and 0.7287 and 0.7311 and 0.7348 and 0.7332 and 0.7318 and 0.7294 and the “BRET signal, raw replicates” value (human S1P5 T79A mutant; [S1P] 2.05556 nM) was 0.7333 and 0.7313 and 0.7311 and 0.7385 and 0.7367 and 0.733 and 0.7328 and 0.7316 and 0.7345. The “BRET signal, raw replicates” value (human S1P5 T79A mutant; [S1P] 6.16667 nM) was 0.7337 and 0.7364 and 0.7232 and 0.7384 and 0.7383 and 0.7348 and 0.7304 and 0.7359 and 0.7321, the “BRET signal, raw replicates” value (human S1P5 T79A mutant; [S1P] 18.5 nM) was 0.7347 (2×) and 0.7375 and 0.7387 and 0.7386 and 0.7311 and 0.7341 and 0.7354 and 0.7312 and the “BRET signal, raw replicates” value (human S1P5 T79A mutant; [S1P] 55.5 nM) was 0.7438 and 0.7423 (2×) and 0.7417 and 0.7457 and 0.7434 and 0.7489 and 0.7415 and 0.7424. For the same molecule, the “BRET signal, raw replicates” value (human S1P5 T79A mutant; [S1P] 185 nM) was 0.7491 (2×) and 0.7494 and 0.7531 and 0.7514 and 0.7551 and 0.7506 and 0.752 and 0.7559, the “BRET signal, raw replicates” value (human S1P5 T79A mutant; [S1P] 781.25 nM) was 0.7686 and 0.7529 and 0.774 and 0.7668 (2×) and 0.7667 and 0.7673 and 0.7649 and 0.7637 and the “BRET signal, raw replicates” value (human S1P5 T79A mutant; [S1P] 3125 nM) was 0.7697 and 0.7671 and 0.7674 and 0.7739 and 0.7792 and 0.7768 and 0.7709 (2×) and 0.7684. The “BRET signal, raw replicates” value (human S1P5 T79A mutant; [S1P] 12500 nM) was 0.7734 and 0.7682 and 0.7706 and 0.7812 and 0.7771 and 0.7806 and 0.7763 and 0.7799 and 0.7701.
